Reference: patent EP0726261A1, “Herbidical 1,2,4 thiadiazoles” (American Cyanamid Company, priority 1995, dated 1996)

How the values were obtained:
Assay type in all cases: in vivo
Alopecurus myosuroides [1] = experiment: Preemergence herbicidal activity (Example 67); set-up: herbicide rating, ALOMY: scale not given here; conditions: pre; 800 g/ha; rated about 1-3 weeks after treatment
Method: (§1) Herbicidal evaluation of compounds of the invention is conducted on the following plant species:
(§2) The soil is a prepared horticultural substrate containing 30% peat, 20% volcanic clay, 30% bark residues and 20% polyamide/styromull in a 1:3 mixture with loamy sand. Test solutions are prepared by dissolving the test compound in acetone containing 0.5% of an alkylphenol/ethylene oxide condensate under the trademark, TRITON® X-155, and diluting with water as needed. The test solutions are applied as a spray to the 3-6 week old seedling plants at dose rates corresponding to 800g/ha in a volume equivalent to 400 L/ha. A pneumatic spraying device employing a Teejet nozzle SS 8002E operating at 3 bar is used for a predetermined time. After spraying, the treated plants are placed on greenhouse benches and cared for in a manner commensurate with conventional greenhouse practice. After 10-21 days, the treated plants are evaluated and rated according to the rating system provided below.
(§3) The soil surface is then sprayed with test solutions as described in the postemergence evaluation hereinabove. After spraying, the treated cups are placed on greenhouse benches and cared for in the manner commensurate with conventional greenhouse practice. About 1-3 weeks after treatment the cups are evaluated and rated according to the rating system provided hereinabove.

Helianthus annuus [2] = experiment: Preemergence herbicidal activity (Example 67); conditions: pre; 800 g/ha; rated about 1-3 weeks after treatment
Method: as §1, §2, §3

Chenopodium album [3] = experiment: Preemergence herbicidal activity (Example 67); conditions: pre; 800 g/ha; rated about 1-3 weeks after treatment
Method: as §1, §2, §3

Veronica persica [4] = experiment: Preemergence herbicidal activity (Example 67); conditions: pre; 800 g/ha; rated about 1-3 weeks after treatment
Method: as §1, §2, §3

Zea mays [5] = experiment: Preemergence herbicidal activity (Example 67); conditions: pre; 800 g/ha; rated about 1-3 weeks after treatment
Method: as §1, §2, §3

Ipomoea hederacea [6] = experiment: Preemergence herbicidal activity (Example 67); conditions: pre; 800 g/ha; rated about 1-3 weeks after treatment
Method: as §1, §2, §3

Galium aparine [7] = experiment: Preemergence herbicidal activity (Example 67); conditions: pre; 800 g/ha; rated about 1-3 weeks after treatment
Method: as §1, §2, §3

Amaranthus retroflexus [8] = experiment: Preemergence herbicidal activity (Example 67); conditions: pre; 800 g/ha; rated about 1-3 weeks after treatment
Method: as §1, §2, §3

Abutilon theophrasti [9] = experiment: Preemergence herbicidal activity (Example 67); conditions: pre; 800 g/ha; rated about 1-3 weeks after treatment
Method: as §1, §2, §3

Setaria viridis [10] = experiment: Preemergence herbicidal activity (Example 67); set-up: herbicide rating, SETVI: scale not given here; conditions: pre; 800 g/ha; rated about 1-3 weeks after treatment
Method: as §1, §2, §3

Helianthus annuus [11] = experiment: Postemergence herbicidal activity (Example 67); conditions: pos; 800 g/ha; rated after 10-21 days
Method: as §1, §2

Triticum aestivum [12] = experiment: Postemergence herbicidal activity (Example 67); conditions: pos; 800 g/ha; rated after 10-21 days
Method: as §1, §2

Chenopodium album [13] = experiment: Postemergence herbicidal activity (Example 67); conditions: pos; 800 g/ha; rated after 10-21 days
Method: as §1, §2

Alopecurus myosuroides [14] = experiment: Postemergence herbicidal activity (Example 67); conditions: pos; 800 g/ha; rated after 10-21 days
Method: as §1, §2

Veronica persica [15] = experiment: Postemergence herbicidal activity (Example 67); conditions: pos; 800 g/ha; rated after 10-21 days
Method: as §1, §2

Zea mays [16] = experiment: Postemergence herbicidal activity (Example 67); conditions: pos; 800 g/ha; rated after 10-21 days
Method: as §1, §2

Hordeum vulgare [17] = experiment: Postemergence herbicidal activity (Example 67); conditions: pos; 800 g/ha; rated after 10-21 days
Method: as §1, §2

Setaria viridis [18] = experiment: Postemergence herbicidal activity (Example 67); conditions: pos; 800 g/ha; rated after 10-21 days
Method: as §1, §2

Ipomoea hederacea [19] = experiment: Postemergence herbicidal activity (Example 67); conditions: pos; 800 g/ha; rated after 10-21 days
Method: as §1, §2

Galium aparine [20] = experiment: Postemergence herbicidal activity (Example 67); conditions: pos; 800 g/ha; rated after 10-21 days
Method: as §1, §2

Amaranthus retroflexus [21] = experiment: Postemergence herbicidal activity (Example 67); conditions: pos; 800 g/ha; rated after 10-21 days
Method: as §1, §2

Abutilon theophrasti [22] = experiment: Postemergence herbicidal activity (Example 67); conditions: pos; 800 g/ha; rated after 10-21 days
Method: as §1, §2

Hordeum vulgare [23] = experiment: Preemergence herbicidal activity (Example 67); set-up: herbicide rating, HORVW: scale not given here; conditions: pre; 800 g/ha; rated about 1-3 weeks after treatment
Method: as §1, §2, §3

Triticum aestivum [24] = experiment: Preemergence herbicidal activity (Example 67); set-up: herbicide rating, TRZAW: scale not given here; conditions: pre; 800 g/ha; rated about 1-3 weeks after treatment
Method: as §1, §2, §3

Row | SMILES | herbicide rating, ALOMY (Alopecurus myosuroides [1]) | herbicide rating, HELAN (Helianthus annuus [2]) | herbicide rating, CHEAL (Chenopodium album [3]) | herbicide rating, VERPE (Veronica persica [4]) | herbicide rating, ZEAMX (Zea mays [5]) | herbicide rating, IPOHE (Ipomoea hederacea [6]) | herbicide rating, GALAP (Galium aparine [7]) | herbicide rating, AMARE (Amaranthus retroflexus [8]) | herbicide rating, ABUTH (Abutilon theophrasti [9]) | herbicide rating, SETVI (Setaria viridis [10]) | herbicide rating, HELAN (Helianthus annuus [11]) | herbicide rating, TRZAW (Triticum aestivum [12]) | herbicide rating, CHEAL (Chenopodium album [13]) | herbicide rating, ALOMY (Alopecurus myosuroides [14]) | herbicide rating, VERPE (Veronica persica [15]) | herbicide rating, ZEAMX (Zea mays [16]) | herbicide rating, HORVW (Hordeum vulgare [17]) | herbicide rating, SETVI (Setaria viridis [18]) | herbicide rating, IPOHE (Ipomoea hederacea [19]) | herbicide rating, GALAP (Galium aparine [20]) | also measured
1 | COc1ccc(-c2nsc(C(=O)NC(C)c3cccs3)n2)cc1 (racemic) [Example 35] | 0 | 3 (16-29%) | 5 (45-64%) | 4 (30-44%) | 0 | 0 | 4 (30-44%) | 0 | 0 | 0 | 5 (45-64%) | 3 (16-29%) | 5 (45-64%) | 3 (16-29%) | 2 (6-15%) | 3 (16-29%) | 3 (16-29%) | 8 (91-99%) | 4 (30-44%) | 4 (30-44%) | herbicide rating, AMARE (Amaranthus retroflexus [21]): 3 (16-29%); herbicide rating, ABUTH (Abutilon theophrasti [22]): 4 (30-44%); herbicide rating, HORVW (Hordeum vulgare [23]): 0; herbicide rating, TRZAW (Triticum aestivum [24]): 0
2 | COc1ccc(-c2nsc(C(=O)NC(C)c3ccc(C)s3)n2)cc1 (racemic) [Example 37] | 0 | 0 | 6 (65-79%) | 0 | 0 | 0 | 0 | 0 | 0 | 0 | 0 | 3 (16-29%) | 3 (16-29%) | 2 (6-15%) | 0 | 0 | 2 (6-15%) | 4 (30-44%) | 1 (1-5%) | 0 | herbicide rating, AMARE (Amaranthus retroflexus [21]): 0; herbicide rating, ABUTH (Abutilon theophrasti [22]): 0; herbicide rating, HORVW (Hordeum vulgare [23]): 0; herbicide rating, TRZAW (Triticum aestivum [24]): 0
3 | CC(NC(=O)c1nc(-c2ccccc2F)ns1)c1cccs1 (racemic) [Example 38] | 0 | 0 | 5 (45-64%) | 2 (6-15%) | 0 | 0 | 0 | 4 (30-44%) | 0 | 0 | 7 (80-90%) | 3 (16-29%) | 6 (65-79%) | 4 (30-44%) | 1 (1-5%) | 3 (16-29%) | 3 (16-29%) | 8 (91-99%) | 5 (45-64%) | 5 (45-64%) | herbicide rating, AMARE (Amaranthus retroflexus [21]): 3 (16-29%); herbicide rating, ABUTH (Abutilon theophrasti [22]): 8 (91-99%); herbicide rating, HORVW (Hordeum vulgare [23]): 0; herbicide rating, TRZAW (Triticum aestivum [24]): 0
4 | CC(NC(=O)c1nsc(-c2ccc(F)cc2)n1)c1cccs1 (racemic) [Example 39] | 0 | 0 | 0 | 0 | 0 | 0 | 0 | 4 (30-44%) | 0 | 0 | 6 (65-79%) | 3 (16-29%) | 4 (30-44%) | 3 (16-29%) | 2 (6-15%) | 6 (65-79%) | 3 (16-29%) | 8 (91-99%) | 4 (30-44%) | 5 (45-64%) | herbicide rating, AMARE (Amaranthus retroflexus [21]): 3 (16-29%); herbicide rating, ABUTH (Abutilon theophrasti [22]): 4 (30-44%); herbicide rating, HORVW (Hordeum vulgare [23]): 0; herbicide rating, TRZAW (Triticum aestivum [24]): 0
